How the values were obtained:
[1] = test system: Staphylococcus epidermidis ATCC 35984; experiment: Bacterial growth assay, microtiter plates OD600; format: cell-based; conditions: untreated growth control = 100%
Procedure: Bacterial growth assays. Microtiter plates: bacterial growth was evaluated by difference between the optical density absorbance at 600 nm measured at the end and the beginning of the incubation time (37° C., 1, 4 or 24 h) in 96-well poly(vinyl chloride) microtiter plates. Rifampicin 16 μg/mL (Sigma-Aldrich Co., USA) was used as a control for bacterial growth inhibition. Colony-forming units (CFU/mL): after incubation (37° C., 24 h) the CFU was calculated to determine bactericidal effect of peptide solution. Untreated growth control was considered 100% of planktonic cells. All assays were at least performed as technical and biological triplicates.
Microtiter plates: Bacterial growth was evaluated by comparing OD600 values at the start and end of incubation in 96-well PVC microtiter plates.

[2] = test system: Staphylococcus epidermidis RP62A (ATCC 35984) biofilm; experiment: Biofilm formation inhibition, crystal violet in 96-well PVC microtiter plates; format: cell-based; conditions: biofilm formation control = 100%
Procedure: Biofilm formation. […] Biofilm inhibition: a protocol adapted from Zimmer et al. (2013) Environmental Microbiology 15:2008-2018 and Trentin et al. (2015) Scientific Reports 5:8287, employing crystal violet in 96-well poly(vinyl chloride) microtiter plates (Falcon; Becton Dickinson Labware, Oxnard, Calif.) was used. Briefly, 100 μL of the bacterial suspension, 100 μL of the peptide solution (at different concentrations) or vehicle (to controls) and 50 μL of tryptone soya broth (TSB, Oxoid Ltd., England). Following 37° C. for 1, 4 or 24 h of incubation, the content of the wells was removed and the wells were washed three times with sterile saline. The remaining contents were heat-fixed at 60° C. for 1 h. The adherent biofilm layer formed was stained with 0.4% crystal violet for 15 min at room temperature and then washed three times with distilled water. The stain bound to the cells was solubilized with absolute ethanol (Sigma-Aldrich Co., USA) and absorbance was measured at 570 nm (Powerwave™ XS Plate Reader, BIO-TEK Instruments®, Inc.). The biofilm formation controls represent 100% of biofilm formation. Biofilm eradication: biofilm was pre-formed as described before, during 24 h at 37° C., without treatment. After biofilm formation, the wells were washed to remove the planktonic cells and the peptides solutions and controls were added and incubated for 24 h. The eradication was verified by evaluating the remaining content by crystal violet.
Biofilm formation inhibition: A protocol adapted from Trentin et al. (2015) Scientific Reports 5 was used, with crystal violet in 96-well BD Falcon polyvinyl chloride (PVC) microtiter plates. The cell-bound stains were solubilized with absolute ethanol (Sigma-Aldrich), and absorbance was measured at 570 nm using a BIO-TEK PowerWave XS plate reader. The biofilm formation control represents 100% of biofilm formation.

[3] = positive control, concentration 780 (μM)

Compound	Growth (%) ([1]; peptide concentration 100 μM)	Remanescent biofilm (%) ([2]; peptide concentration 100 μM)	further results
IQQAQQLS (P3y)			Growth (%) ([1]; peptide concentration 10 μM): 172.0%; Remanescent biofilm (%) ([2]; peptide concentration 10 μM): 6.2%
RSCQQQ (P3x)	91.9%	34.4%	
CO[C@H]1/C=C/O[C@@]2(C)Oc3c(C)c(O)c4c(O)c(c(/C=N/N5CCN(C)CC5)c(O)c4c3C2=O)NC(=O)/C(C)=C\C=C\[C@H](C)[C@H](O)[C@@H](C)[C@@H](O)[C@@H](C)[C@H](OC(C)=O)[C@@H]1C [Rifampicin, reference compound]			Growth (%) [1, 3]: 28.7%; Remanescent biofilm (%) [2, 3]: 9.7%
RVQSEEGEDQISQRE (P1)	123.2%	64.9%	
RSCQQQIQQAQQLSSCQQYLKQRVQSEEGEDQISQRE (P31) [synthetic peptide derived from 2S sulfur-rich seed storage protein 2-like of Capsicum baccatum]			Growth (%) ([1]; peptide concentration 400 μM): 88.6%; Remanescent biofilm (%) ([2]; peptide concentration 400 μM): 8.3%
SCQQYLKQ (P3z)	169.9%	46.3%	
RSCQQQIQQAQQ (P3a)	89.9%	61.5%	

— US20220153786A1, “PEPTIDES FOR PREVENTING BIOFILM FORMATION” (priority 2019, published 2022)
